Tests used:
germinal centers = experiment: Immunohistochemistry of mouse spleen cryosections (Bcl-6 germinal centers, CD3 T cells), scored by pathologist; type: in vivo
Description: (§1) Female C57BL/6 mice (Charles River Laboratories, Bedford, Mass.) were used in these studies and treated with a beta-carboline, N-(6-chloro-7-methoxy-9H-beta-carbolin-8-yl)-2-methyl-nicotinamide (ML120B) following three different treatment regimens, A, B, and C. After the treatment, animals were euthanized and tissues were collected and frozen. Germinal centers were identified by immunohistochemistry (IHC) of cryosections (6 μm) using an antibody to mouse Bcl-6. T cells also were identified by IHC of serial cryosections, using an antibody to mouse CD3. The size and/or frequency of germinal centers and T cells were scored by a board-certified anatomic pathologist, using a 0 (low) to 4 (high) scale.
(§2) Mice were given a single oral dose of ML120B as indicated (n=4/group) for 6 hours. The level of mouse mu heavy chain germline transcript was measured in RNA isolated from serial cryosections by qRT-PCR.
(§3) Mice were given a single oral dose of ML120B as indicated (n=4/group) for 18 hours. The level of mouse mu heavy chain germline transcript was measured in RNA isolated from serial cryosections by qRT-PCR.
Mice were given twice daily oral dose of ML120B by gavage, as indicated (n=4/group) for four days. The level of mouse mu, gamma 3 and gamma 1 heavy chain germline transcript, AICDA transcript, gamma 1 & 2 circle transcript and 18S rRNA were measured in RNA isolated from serial cryosections by qRT-PCR. […] Germinal centers expressing Bcl-6 decreased 10-fold at 300 mg/kg (FIG. 3). Germline transcripts mu, gamma 3 and gamma 1 decreased from 10-1000-fold at 300 mg/kg (FIG. 3). Transcripts encoding AICDA decreased 100-1000-fold at 300 mg/kg (FIG. 3). Circle transcript gamma 1&2 decreased 10-fold at 100 mg/kg (FIG. 3).

[1] = system: switch transcripts in mouse spleens; experiment: qRT-PCR of switch transcripts in mouse spleens; type: in vivo; settings: spleen
Description: as §1
Total ribonucleic acid (RNA) was isolated from 10 spleen cryosections, each […], using the RNEASY® Universal Tissue 8000 Kit (QIAGEN Inc., Valencia, Calif.) on a BIOROBOT® 8000 Workstation (QIAGEN INC., Valencia, Calif.), and deoxyribonucleic acidase (DNASE)-treated according to the manufacturer's protocol. The purity and yield of the RNA were assessed via spectrophotometry from 220 to 750 nm using the NANODROP® ND-1000 (NANODROP Technologies, Wilmington, Del.). The integrity of the RNA was measured with the RNA 6000 NANO LABCHIP® Kit (AGILENT Technologies, Foster City, Calif.) on an AGILENT 2100 Bioanalyzer (AGILENT Technologies, Foster City, Calif.) and calculated using the RNA integrity number (RIN) algorithm (Schroeder et al. (2006) BMC Mol. Biol. 7:3). Deoxyribonucleic acidase-treated RNA was extracted from the samples and stored at −80° C. First strand complementary deoxyribonucleic acid (cDNA) synthesis was performed using a TAQMAN® Gold RT Master Mix (Applied Biosystems, Foster City, Calif.) according to the manufacturer's protocol, except that both oligothymidylic (oligo[dT]) and random hexamers were used for priming. The quality of synthesized cDNA was assessed by generating expression profiles of endogenous reference genes with a real-time polymerase chain reaction (PCR) system, the ABI PRISM® 7900HT Sequence Detection System (Applied Biosystems, Foster City, Calif.). Complementary deoxyribonucleic acid samples were stored at −20° C.
Sequences for all biomarkers (Table 1) were derived from mouse and human deoxyribonucleic acid (DNA) sequence (GENBANK® database [online] maintained by National Center for Biotechnology Information, Bethesda, Md.). Quantitative reverse-transcriptase polymerase chain reaction assays were performed on an ABI PRISM® 7900HT Sequence Detection System (Applied Biosystems, Inc. (Foster City, Calif.) using a SYBR-green detection system (Qiagen Inc., Valencia, Calif.). All quantitative assays were run using universal thermal cycling parameters: hold at 95° C. for 2 minutes to activate the DNA polymerase, then run 40 three-part cycles (95° C. for 20 seconds, 58° C. for 20 seconds, and 76° C. for 20 seconds). Data were analyzed using sequence detection system (SDS) software, Version 1.7 (Applied Biosystems, Inc. (Foster City, Calif.). […] From each amplification plot, a threshold cycle (Ct) value was calculated. […] The Ct values were exported to an EXCEL® (MICROSOFT Corp., Redmond, Wash.) spreadsheet and relative expression (x) was calculated as shown in equation 2.
as §2, §3
Mice were given twice daily oral dose of ML120B by gavage, as indicated (n=4/group) for four days. The level of mouse mu, gamma 3 and gamma 1 heavy chain germline transcript, AICDA transcript, gamma 1 & 2 circle transcript and 18S rRNA were measured in RNA isolated from serial cryosections by qRT-PCR. […]

[2] = single oral dose 300 mg/kg, 18 hours
[3] = single oral dose, within first 6 hours
[4] = twice daily oral 300 mg/kg, four days

## COc1c(Cl)cc2c([nH]c3cnccc32)c1NC(=O)c1cccnc1C [ML120B, N-(6-chloro-7-methoxy-9H-beta-carbolin-8-yl)-2-methyl-nicotinamide]
Germinal centers; [2]
  reduction in germinal centers: 10 fold
Germinal centers; single oral dose, 6 hours
  frequency of T cells: remained unchanged
Germinal centers; single oral dose, 18 hours
  frequency of T cells: remained unchanged
Germinal centers; [3]
  decrease in frequency of germinal centers: 50%
Germinal centers; [4]
  decrease in germinal centers expressing Bcl-6: 10 fold
[1]; [2]
  reduction in mu germline transcripts: 1000 fold
[1]; single oral dose, 18 hours
  level of 18S rRNA: remained unchanged
[1]; [3]
  decrease in level of mu germline transcripts: 50%
[1]; twice daily oral 100 mg/kg, four days
  decrease in circle transcript gamma 1&2: 10 fold
[1]; [4]
  decrease in germline transcripts mu, gamma 3 and gamma 1: 10-1000 fold
  decrease in transcripts encoding AICDA: 100-1000 fold
[1]; twice daily oral, four days
  level of 18S rRNA: remained unchanged
